# In ChEMBL document CHEMBL1629679, “Extended-spectrum cephalosporinases in Pseudomonas aeruginosa” (2009):
# Experiments:
# Pseudomonas aeruginosa [1] = experiment: Antimicrobial activity against Pseudomonas aeruginosa isolate Pae-beta-30 with PDC-8 variant by Etest; type: functional
# Pseudomonas aeruginosa [2] = experiment: Antimicrobial activity against AmpC overproducing Pseudomonas aeruginosa isolate Pae-beta-28 with PDC-7 variant by Etest; type: functional
# Pseudomonas aeruginosa [3] = experiment: Antimicrobial activity against AmpC overproducing Pseudomonas aeruginosa isolate Pae-beta-21 with PDC-4 variant by Etest; type: functional
# Pseudomonas aeruginosa [4] = experiment: Antimicrobial activity against AmpC overproducing Pseudomonas aeruginosa isolate Pae-beta-15 with PDC-2 variant by Etest; type: functional
# Pseudomonas aeruginosa [5] = experiment: Antimicrobial activity against AmpC overproducing Pseudomonas aeruginosa isolate Pae-beta-09 with PDC-2 variant by Etest; type: functional
# Pseudomonas aeruginosa [6] = experiment: Antimicrobial activity against AmpC overproducing Pseudomonas aeruginosa isolate Pae-beta-08 with PDC-2 variant by Etest; type: functional
# Pseudomonas aeruginosa [7] = experiment: Antimicrobial activity against AmpC overproducing Pseudomonas aeruginosa isolate Pae-beta-03 with PDC-2 variant by Etest; type: functional
# Pseudomonas aeruginosa [8] = experiment: Antimicrobial activity against AmpC overproducing Pseudomonas aeruginosa isolate Pae-beta-13 with PDC-2 variant by Etest; type: functional
# Pseudomonas aeruginosa [9] = experiment: Antimicrobial activity against AmpC overproducing Pseudomonas aeruginosa isolate Pae-beta-16 with PDC-3 variant by Etest; type: functional
# Pseudomonas aeruginosa [10] = experiment: Antimicrobial activity against AmpC overproducing Pseudomonas aeruginosa isolate Pae-beta-14 with PDC-2 variant by Etest; type: functional
# Pseudomonas aeruginosa [11] = experiment: Antimicrobial activity against AmpC overproducing Pseudomonas aeruginosa isolate Pae-beta-07 with PDC-2 variant by Etest; type: functional
# Pseudomonas aeruginosa [12] = experiment: Antimicrobial activity against AmpC overproducing Pseudomonas aeruginosa isolate Pae-beta-27 with PDC-7 variant by Etest; type: functional
# Pseudomonas aeruginosa [13] = experiment: Antimicrobial activity against AmpC overproducing Pseudomonas aeruginosa isolate Pae-beta-04 with PDC-2 variant by Etest; type: functional
# Pseudomonas aeruginosa [14] = experiment: Antimicrobial activity against AmpC overproducing Pseudomonas aeruginosa isolate Pae-beta-11 with PDC-2 variant by Etest; type: functional
# Pseudomonas aeruginosa [15] = experiment: Antimicrobial activity against AmpC overproducing Pseudomonas aeruginosa isolate Pae-beta-12 with PDC-2 variant by Etest; type: functional
# Pseudomonas aeruginosa [16] = experiment: Antimicrobial activity against AmpC overproducing Pseudomonas aeruginosa isolate Pae-beta-17 with PDC-3 variant by Etest; type: functional
# Pseudomonas aeruginosa [17] = experiment: Antimicrobial activity against AmpC overproducing Pseudomonas aeruginosa isolate Pae-beta-22 with PDC-4 variant by Etest; type: functional
# Pseudomonas aeruginosa [18] = experiment: Antimicrobial activity against AmpC overproducing Pseudomonas aeruginosa isolate Pae-beta-06 with PDC-2 variant by Etest; type: functional
# Pseudomonas aeruginosa [19] = experiment: Antimicrobial activity against AmpC overproducing Pseudomonas aeruginosa isolate Pae-beta-24 with PDC-5 variant by Etest; type: functional
# Pseudomonas aeruginosa [20] = experiment: Antimicrobial activity against AmpC overproducing Pseudomonas aeruginosa isolate Pae-beta-10 with PDC-2 variant by Etest; type: functional
# Pseudomonas aeruginosa [21] = experiment: Antimicrobial activity against Pseudomonas aeruginosa isolate Pae-beta-29 with PDC-8 variant by Etest; type: functional
# Pseudomonas aeruginosa [22] = experiment: Antimicrobial activity against Pseudomonas aeruginosa isolate Pae-beta-05 with PDC-2 variant by Etest; type: functional
# Pseudomonas aeruginosa [23] = experiment: Antimicrobial activity against AmpC overproducing Pseudomonas aeruginosa isolate Pae-beta-23 with PDC-5 variant by Etest; type: functional
# Pseudomonas aeruginosa [24] = experiment: Antimicrobial activity against AmpC overproducing Pseudomonas aeruginosa isolate Pae-beta-18 with PDC-3 variant by Etest; type: functional
# Pseudomonas aeruginosa [25] = experiment: Antimicrobial activity against AmpC overproducing Pseudomonas aeruginosa isolate Pae-beta-32 with PDC-10 variant by Etest; type: functional
# Pseudomonas aeruginosa [26] = experiment: Antimicrobial activity against AmpC overproducing Pseudomonas aeruginosa isolate Pae-beta-25 with PDC-6 variant by Etest; type: functional
# Pseudomonas aeruginosa [27] = experiment: Antimicrobial activity against Pseudomonas aeruginosa isolate Pae-beta-31 with PDC-9 variant by Etest; type: functional
# Pseudomonas aeruginosa [28] = experiment: Antimicrobial activity against AmpC overproducing Pseudomonas aeruginosa isolate Pae-beta-20 with PDC-4 variant by Etest; type: functional
# Pseudomonas aeruginosa [29] = experiment: microbe, parasite or virus in culture; settings: 12B
# Pseudomonas aeruginosa [30] = experiment: microbe, parasite or virus in culture; type: functional; settings: KG2505a
# Pseudomonas aeruginosa [31] = experiment: microbe, parasite or virus in culture; type: functional; settings: 12B
# Pseudomonas aeruginosa [32] = experiment: microbe, parasite or virus in culture; type: functional; settings: KG2505a; remark: listed apart in the source
# Pseudomonas aeruginosa [33] = experiment: microbe, parasite or virus in culture; type: functional; settings: KG2505a; remark: listed apart in the source
# Pseudomonas aeruginosa [34] = experiment: microbe, parasite or virus in culture; settings: 12B; remark: listed apart in the source
# Pseudomonas aeruginosa [35] = experiment: microbe, parasite or virus in culture; type: functional; settings: KG2505a; remark: listed apart in the source
# Pseudomonas aeruginosa [36] = experiment: microbe, parasite or virus in culture; settings: 12B; remark: listed apart in the source
# Pseudomonas aeruginosa [37] = experiment: microbe, parasite or virus in culture; settings: 12B; remark: listed apart in the source
# Pseudomonas aeruginosa [38] = experiment: microbe, parasite or virus in culture; type: functional; settings: KG2505a; remark: listed apart in the source
# Pseudomonas aeruginosa [39] = experiment: microbe, parasite or virus in culture; settings: PAO1
# Pseudomonas aeruginosa [40] = experiment: Antimicrobial activity against Pseudomonas aeruginosa isolate Pae-beta-02 with PDC-1 variant by Etest; type: functional
# Pseudomonas aeruginosa [41] = experiment: Antimicrobial activity against Pseudomonas aeruginosa isolate Pae-beta-19 with PDC-3 variant by Etest; type: functional
# Pseudomonas aeruginosa [42] = experiment: Antimicrobial activity against Pseudomonas aeruginosa isolate Pae-beta-01 with PDC-1 variant by Etest; type: functional
# Pseudomonas aeruginosa [43] = experiment: microbe, parasite or virus in culture; settings: isolate Pae-beta-26
structure (smiles),measurement,setting,value
C[C@@H](O)[C@H]1C(=O)N2C(C(=O)O)=C(SCCNC=N)C[C@H]12 [IMIPENEM ANHYDROUS],MIC,Pseudomonas aeruginosa [1],8 µg/mL
same,MIC,Pseudomonas aeruginosa [2],16 µg/mL
same,MIC,Pseudomonas aeruginosa [3],16 µg/mL
same,MIC,Pseudomonas aeruginosa [4],16 µg/mL
same,MIC,Pseudomonas aeruginosa [5],16 µg/mL
same,MIC,Pseudomonas aeruginosa [6],16 µg/mL
same,MIC,Pseudomonas aeruginosa [7],16 µg/mL
same,MIC,Pseudomonas aeruginosa [8],16 µg/mL
same,MIC,Pseudomonas aeruginosa [9],32 µg/mL
same,MIC,Pseudomonas aeruginosa [10],16 µg/mL
same,MIC,Pseudomonas aeruginosa [11],16 µg/mL
same,MIC,Pseudomonas aeruginosa [12],32 µg/mL
same,MIC,Pseudomonas aeruginosa [13],16 µg/mL
same,MIC,Pseudomonas aeruginosa [14],16 µg/mL
same,MIC,Pseudomonas aeruginosa [15],16 µg/mL
same,MIC,Pseudomonas aeruginosa [16],32 µg/mL
same,MIC,Pseudomonas aeruginosa [17],8 µg/mL
same,MIC,Pseudomonas aeruginosa [18],16 µg/mL
same,MIC,Pseudomonas aeruginosa [19],32 µg/mL
same,MIC,Pseudomonas aeruginosa [20],16 µg/mL
same,MIC,Pseudomonas aeruginosa [21],16 µg/mL
same,MIC,Pseudomonas aeruginosa [22],16 µg/mL
same,MIC,Pseudomonas aeruginosa [23],32 µg/mL
same,MIC,Pseudomonas aeruginosa [24],64 µg/mL
same,MIC,Pseudomonas aeruginosa [25],64 µg/mL
same,MIC,Pseudomonas aeruginosa [26],8 µg/mL
same,MIC,Pseudomonas aeruginosa [27],16 µg/mL
same,MIC,Pseudomonas aeruginosa [28],16 µg/mL
C[C@@H](O)[C@H]1C(=O)N2C(C(=O)O)=C(S[C@@H]3CN[C@H](C(=O)N(C)C)C3)[C@H](C)[C@H]12 [MEROPENEM],MIC,Pseudomonas aeruginosa [29],2 µg/mL
same,MIC,Pseudomonas aeruginosa [30],0.25 µg/mL
same,MIC,Pseudomonas aeruginosa [31],1 µg/mL
same,MIC,Pseudomonas aeruginosa [32],0.25 µg/mL
same,MIC,Pseudomonas aeruginosa [33],0.12 µg/mL
same,MIC,Pseudomonas aeruginosa [34],2 µg/mL
same,MIC,Pseudomonas aeruginosa [35],0.25 µg/mL
same,MIC,Pseudomonas aeruginosa [36],2 µg/mL
same,MIC,Pseudomonas aeruginosa [37],2 µg/mL
same,MIC,Pseudomonas aeruginosa [38],0.25 µg/mL
CO/N=C(\C(=O)N[C@@H]1C(=O)N2C(C(=O)[O-])=C(C[N+]3(C)CCCC3)CS[C@H]12)c1csc(N)n1,MIC,Pseudomonas aeruginosa [1],8 µg/mL
same,MIC,Pseudomonas aeruginosa [2],16 µg/mL
same,MIC,Pseudomonas aeruginosa [3],32 µg/mL
same,MIC,Pseudomonas aeruginosa [4],128 µg/mL
same,MIC,Pseudomonas aeruginosa [29],32 µg/mL
same,MIC,Pseudomonas aeruginosa [30],4 µg/mL
same,MIC,Pseudomonas aeruginosa [5],32 µg/mL
same,MIC,Pseudomonas aeruginosa [6],32 µg/mL
same,MIC,Pseudomonas aeruginosa [7],64 µg/mL
same,MIC,Pseudomonas aeruginosa [8],16 µg/mL
same,MIC,Pseudomonas aeruginosa [9],32 µg/mL
same,MIC,Pseudomonas aeruginosa [31],4 µg/mL
same,MIC,Pseudomonas aeruginosa [10],32 µg/mL
same,MIC,Pseudomonas aeruginosa [11],32 µg/mL
same,MIC,Pseudomonas aeruginosa [12],64 µg/mL
same,MIC,Pseudomonas aeruginosa [13],32 µg/mL
same,MIC,Pseudomonas aeruginosa [32],16 µg/mL
same,MIC,Pseudomonas aeruginosa [33],1 µg/mL
same,MIC,Pseudomonas aeruginosa [14],32 µg/mL
same,MIC,Pseudomonas aeruginosa [15],32 µg/mL
same,MIC,Pseudomonas aeruginosa [16],32 µg/mL
same,MIC,Pseudomonas aeruginosa [17],16 µg/mL
same,MIC,Pseudomonas aeruginosa [35],4 µg/mL
same,MIC,Pseudomonas aeruginosa [18],32 µg/mL
same,MIC,Pseudomonas aeruginosa [19],64 µg/mL
same,MIC,Pseudomonas aeruginosa [36],32 µg/mL
same,MIC,Pseudomonas aeruginosa [20],32 µg/mL
same,MIC,Pseudomonas aeruginosa [39],2 µg/mL
same,MIC,Pseudomonas aeruginosa [22],16 µg/mL
same,MIC,Pseudomonas aeruginosa [23],32 µg/mL
same,MIC,Pseudomonas aeruginosa [24],128 µg/mL
same,MIC,Pseudomonas aeruginosa [25],32 µg/mL
same,MIC,Pseudomonas aeruginosa [26],32 µg/mL
same,MIC,Pseudomonas aeruginosa [27],32 µg/mL
same,MIC,Pseudomonas aeruginosa [28],16 µg/mL
same,MIC,Pseudomonas aeruginosa [38],16 µg/mL
CC(C)(O/N=C(\C(=O)N[C@@H]1C(=O)N2C(C(=O)[O-])=C(C[n+]3ccccc3)CS[C@H]12)c1csc(N)n1)C(=O)O [CEFTAZIDIME],MIC,Pseudomonas aeruginosa [1],8 µg/mL
same,MIC,Pseudomonas aeruginosa [2],16 µg/mL
same,MIC,Pseudomonas aeruginosa [3],32 µg/mL
same,MIC,Pseudomonas aeruginosa [4],32 µg/mL
same,MIC,Pseudomonas aeruginosa [29],32 µg/mL
same,MIC,Pseudomonas aeruginosa [40],8 µg/mL
same,MIC,Pseudomonas aeruginosa [30],32 µg/mL
same,MIC,Pseudomonas aeruginosa [5],16 µg/mL
same,MIC,Pseudomonas aeruginosa [6],16 µg/mL
same,MIC,Pseudomonas aeruginosa [7],16 µg/mL
same,MIC,Pseudomonas aeruginosa [8],4 µg/mL
same,MIC,Pseudomonas aeruginosa [41],8 µg/mL
same,MIC,Pseudomonas aeruginosa [9],32 µg/mL
same,MIC,Pseudomonas aeruginosa [31],8 µg/mL
same,MIC,Pseudomonas aeruginosa [10],16 µg/mL
same,MIC,Pseudomonas aeruginosa [11],16 µg/mL
same,MIC,Pseudomonas aeruginosa [12],16 µg/mL
same,MIC,Pseudomonas aeruginosa [13],32 µg/mL
same,MIC,Pseudomonas aeruginosa [32],16 µg/mL
same,MIC,Pseudomonas aeruginosa [33],4 µg/mL
same,MIC,Pseudomonas aeruginosa [42],8 µg/mL
same,MIC,Pseudomonas aeruginosa [14],16 µg/mL
same,MIC,Pseudomonas aeruginosa [15],16 µg/mL
same,MIC,Pseudomonas aeruginosa [16],64 µg/mL
same,MIC,Pseudomonas aeruginosa [17],16 µg/mL
same,MIC,Pseudomonas aeruginosa [34],32 µg/mL
same,MIC,Pseudomonas aeruginosa [35],32 µg/mL
same,MIC,Pseudomonas aeruginosa [18],16 µg/mL
same,MIC,Pseudomonas aeruginosa [19],64 µg/mL
same,MIC,Pseudomonas aeruginosa [36],64 µg/mL
same,MIC,Pseudomonas aeruginosa [20],16 µg/mL
same,MIC,Pseudomonas aeruginosa [39],1 µg/mL
same,MIC,Pseudomonas aeruginosa [21],8 µg/mL
same,MIC,Pseudomonas aeruginosa [22],32 µg/mL
same,MIC,Pseudomonas aeruginosa [43],32 µg/mL
same,MIC,Pseudomonas aeruginosa [23],64 µg/mL
same,MIC,Pseudomonas aeruginosa [24],128 µg/mL
same,MIC,Pseudomonas aeruginosa [25],32 µg/mL
same,MIC,Pseudomonas aeruginosa [26],32 µg/mL
same,MIC,Pseudomonas aeruginosa [37],32 µg/mL
same,MIC,Pseudomonas aeruginosa [27],32 µg/mL
same,MIC,Pseudomonas aeruginosa [28],8 µg/mL
same,MIC,Pseudomonas aeruginosa [38],16 µg/mL
